From the supplement of paper PMC10307832

Columns and labels:
Assay in all cases: relative viability (nuclei count vs DMSO), 5 days (fraction); higher = more cells survive
RO-3306 + Navitoclax = compound: C1=CC2=C(C=CC(=C2)C=C3C(=O)NC(=NCC4=CC=CS4)S3)N=C1 [RO-3306] + CC1(C)CCC(c2ccc(Cl)cc2)=C(CN2CCN(c3ccc(C(=O)NS(=O)(=O)c4ccc(N[C@H](CCN5CCOCC5)CSc5ccccc5)c(S(=O)(=O)C(F)(F)F)c4)cc3)CC2)C1 [Navitoclax] (partner 0.5 µM)
In short: (§1)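 Relative viability was taken as the ratio of nuclei in treated wells to nuclei in vehicle wells. Lung cancer cell lines in 1536-well plates received compounds by pin tool one day after seeding, either one drug alone or a fixed anchor-drug dose plus five library-drug doses (not always all listed) in √10 steps. Nuclei were counted on 4× images after 5 days of treatment, and values are medians of duplicate plates.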

RO-3306 + Olaparib = compound: C1=CC2=C(C=CC(=C2)C=C3C(=O)NC(=NCC4=CC=CS4)S3)N=C1 [RO-3306] + O=C(c1cc(Cc2n[nH]c(=O)c3ccccc23)ccc1F)N1CCN(C(=O)C2CC2)CC1 [Olaparib] (partner 8 µM)
In short: as §1

[1] = compound: O=S(=O)(c1ccccc1)N(CC(F)(F)F)c1ccc(C(O)(C(F)(F)F)C(F)(F)F)cc1 + COc1cccc2cc(-c3nc([C@H]4CC[C@H](C(=O)O)CC4)n4ncnc(N)c34)[nH]c12 [OSI-027] (partner 0.5 µM)
In short: as §1

[2] = compound: O=S(=O)(c1ccccc1)N(CC(F)(F)F)c1ccc(C(O)(C(F)(F)F)C(F)(F)F)cc1 + Nc1ncn([C@H]2C[C@H](O)[C@@H](CO)O2)c(=O)n1 [Decitabine] (partner 2 µM)
In short: as §1

Row | Cell Line | relative viability (RO-3306 + Navitoclax; first compound 0.01 µM) | relative viability (RO-3306 + Navitoclax; first compound 0.03162 µM) | relative viability (RO-3306 + Navitoclax; first compound 0.1 µM) | relative viability (RO-3306 + Navitoclax; first compound 0.3162 µM) | relative viability (RO-3306 + Navitoclax; first compound 1 µM) | relative viability (RO-3306 + Olaparib; first compound 0.01 µM) | relative viability (RO-3306 + Olaparib; first compound 0.1 µM) | relative viability (RO-3306 + Olaparib; first compound 0.3162 µM) | relative viability (RO-3306 + Olaparib; first compound 1 µM) | relative viability ([1]; first compound 0.8 µM) | relative viability ([1]; first compound 2.53 µM) | relative viability ([1]; first compound 8 µM) | relative viability ([2]; first compound 0.8 µM) | relative viability ([2]; first compound 2.53 µM) | relative viability ([2]; first compound 8 µM) | relative viability (RO-3306 + Olaparib; first compound 0.03162 µM)
1 | NCI-H23 | 0.965 | 0.842 | 0.87 | 0.881 | 0.613 | 0.333 | 0.25 | 0.307 | 0.268 | 0.62 | 0.711 | 0.594 | 0.292 | 0.28 | 0.352 | –
2 | NCI-H2405 | 0.91 | 0.735 | 0.934 | 0.949 | 0.834 | 0.844 | 0.887 | 0.899 | 0.732 | 0.674 | 0.645 | 0.681 | 0.841 | 0.701 | 0.797 | 0.863
3 | HARA | 1.16 | 1.11 | 1.17 | 1.12 | 1.37 | 0.795 | 0.764 | 0.632 | 0.763 | 0.397 | 0.469 | 0.425 | 0.426 | – | 0.657 | –
4 | HCC-44 | 1.09 | 1.01 | 0.932 | 1.08 | 1.03 | 1.01 | 1 | 1.01 | 1.02 | – | 0.482 | 0.6 | 1.03 | 0.968 | 0.991 | 0.958
5 | CAL-12T | 1.01 | 1.07 | 1.32 | 1.16 | 1.13 | 0.808 | 0.668 | 0.777 | 0.737 | 0.548 | 0.554 | 0.588 | – | – | – | 0.717
6 | NCI-H838 | 1.26 | 1.14 | 1.17 | 1.19 | 1.21 | 0.894 | 0.768 | 0.808 | 0.869 | 0.411 | 0.412 | 0.467 | 0.474 | 0.46 | 0.482 | 0.562
7 | LK-2 | 0.892 | 0.751 | 0.828 | 0.913 | 0.792 | 0.735 | 0.841 | 0.577 | 0.734 | 0.213 | 0.199 | 0.229 | 0.333 | 0.347 | 0.325 | 0.566
8 | NCI-H358 | – | – | – | – | – | 0.779 | 0.583 | 0.596 | 0.468 | 0.743 | 0.751 | 0.543 | – | 0.19 | 0.129 | 0.485
9 | SW 1573 | 0.838 | – | 0.892 | 0.886 | 0.966 | 0.492 | 0.432 | 0.444 | 0.442 | 0.863 | 0.619 | 0.487 | 0.542 | 0.543 | 0.541 | 0.483
10 | LCLC-103H | – | – | – | – | – | 0.836 | 0.772 | 0.733 | 0.784 | 0.507 | 0.505 | 0.439 | 0.739 | 0.743 | 0.734 | 0.776
11 | HCC-827 | 1.04 | 0.988 | 0.99 | 0.994 | 0.998 | 0.705 | 0.627 | 0.715 | 0.666 | 0.883 | 0.858 | 0.766 | 0.364 | 0.375 | 0.269 | 0.67
12 | NCI-H1666 | 0.954 | 0.871 | 0.858 | 0.86 | 0.779 | 0.749 | 0.693 | 0.685 | 0.729 | 0.849 | 0.819 | 0.813 | 0.697 | 0.661 | 0.684 | 0.749
13 | NCI-H460 | 1.26 | – | 1.26 | 1.35 | 1.22 | 0.412 | 0.464 | 0.442 | 0.466 | 0.882 | 0.699 | 0.723 | 0.681 | 0.462 | 0.349 | 0.363
14 | NCI-H2087 | 0.999 | 1.15 | 0.995 | 1.08 | 0.937 | 0.626 | 0.671 | 0.723 | 0.656 | 0.6 | 0.487 | 0.622 | 0.305 | 0.327 | 0.301 | 0.476
15 | NCI-H2085 | 1.12 | 1.08 | 1.09 | 1.17 | 1.07 | 0.699 | 0.811 | 0.714 | 0.757 | 0.98 | 0.718 | 0.769 | 0.508 | 0.539 | 0.501 | 0.685
16 | NCI-H1299 | 1.08 | 1.11 | 1.04 | 1 | 1.03 | 0.993 | 0.988 | 0.997 | 0.97 | – | – | – | – | – | – | 0.99
17 | ChaGo-K-1 | 0.971 | 1.23 | 0.629 | 0.952 | 0.675 | 0.443 | 0.41 | 0.362 | 0.223 | 0.687 | 0.522 | 0.6 | 0.746 | 0.497 | 0.49 | 0.402
18 | A-427 | 1.05 | 0.978 | 0.959 | 0.936 | 0.993 | 0.81 | 0.705 | 0.778 | 0.652 | 0.434 | 0.479 | 0.676 | 0.526 | 0.509 | 0.551 | 0.813
19 | NCI-H2170 | 0.571 | 0.447 | 0.593 | 0.62 | 0.595 | 0.658 | 0.631 | 0.546 | 0.509 | 0.653 | 0.663 | 0.685 | 0.496 | 0.439 | 0.475 | 0.589
20 | NCI-H441 | 0.593 | 0.71 | 0.382 | 0.57 | 0.364 | 0.641 | 0.592 | 0.581 | 0.443 | 0.669 | 0.517 | 0.62 | 0.238 | 0.212 | 0.21 | 0.461
21 | NCI-H2347 | 0.947 | 0.645 | 1.03 | 0.772 | 0.93 | 0.598 | 0.565 | 0.464 | 0.594 | 0.699 | 0.445 | 0.302 | 0.657 | 0.614 | 0.66 | 0.596
